Source: ChEMBL document CHEMBL1150255, “Spongian diterpenes with thyrotropin releasing hormone receptor 2 binding affinity from Spongia sp” (J Nat Prod, 2008)
pIC50: −log10 of the molar value.

Each molecule was assayed against T1, Thyrotropin-releasing hormone receptor 2 (Rattus norvegicus, UniProt A6IZR3) (assay: Displacement of [3H]3-methylhistidyl-TRH from rat recombinant TRHR2 expressed in […] cells).
T1 sequence (A6IZR3 whole entry): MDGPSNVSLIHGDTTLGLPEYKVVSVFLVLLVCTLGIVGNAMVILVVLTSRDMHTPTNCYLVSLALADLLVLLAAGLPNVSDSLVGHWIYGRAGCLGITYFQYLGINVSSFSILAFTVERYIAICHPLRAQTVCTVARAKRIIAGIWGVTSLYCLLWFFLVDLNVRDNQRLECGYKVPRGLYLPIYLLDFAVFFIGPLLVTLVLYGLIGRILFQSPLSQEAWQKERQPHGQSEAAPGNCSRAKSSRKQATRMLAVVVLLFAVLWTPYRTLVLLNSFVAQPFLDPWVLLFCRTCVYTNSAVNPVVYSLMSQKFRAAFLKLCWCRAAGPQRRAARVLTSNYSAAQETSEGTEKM
Format: cell-based

First: CC1(C)CCC[C@]2(C)[C@H]3CCc4cocc4[C@]3(C)CC[C@@H]12
Second: C[C@]1(CO)CCC[C@]2(CO)[C@H]3CCc4cocc4[C@]3(C)CC[C@@H]12
The pIC50 of the first is 0.22 log units lower: 3.00 for the first, 3.22 for the second. The second is the more potent here.

Compared with `CC(=O)OC[C@@]1(C)CCC[C@]2(COC(C)=O)[C@H]3CCc4cocc4[C@]3(C)CC[C@@H]12`, `CC(=O)OC[C@@]1(C)CCC[C@]2(CO)[C@H]3CCc4cocc4[C@]3(C)CC[C@@H]12` is 0.75 log units higher in pIC50: 3.40 for the first, 4.15 for the second.

Going from `CC(=O)OC[C@]12CCC[C@](C)(CO)[C@@H]1CC[C@@]1(C)c3cocc3CC[C@H]21` to `NC(=O)[C@@H]1CCCN1C(=O)[C@H](Cc1cnc[nH]1)NC(=O)[C@@H]1CCC(=O)N1` [PROTIRELIN], the pIC50 rises from 4.64 to 7.64 (3.00 log units). The second is the more potent here.
